The values that follow come from US9518041B2, “(+)-5-(3,4-difluorophenyl)-5-[(3-methyl-2-oxopyridin-1(2H)-yl)methyl]imidazolidine-2,4-dione and drug containing same” (KAKEN PHARMACEUTICAL CO., LTD., priority 2013, dated 2016).

In one test the target is T1, human MMP-1 (Homo sapiens, UniProt P03956).
T1 construct: purchased Calbiochem 444208
T1 sequence (P03956 100-469): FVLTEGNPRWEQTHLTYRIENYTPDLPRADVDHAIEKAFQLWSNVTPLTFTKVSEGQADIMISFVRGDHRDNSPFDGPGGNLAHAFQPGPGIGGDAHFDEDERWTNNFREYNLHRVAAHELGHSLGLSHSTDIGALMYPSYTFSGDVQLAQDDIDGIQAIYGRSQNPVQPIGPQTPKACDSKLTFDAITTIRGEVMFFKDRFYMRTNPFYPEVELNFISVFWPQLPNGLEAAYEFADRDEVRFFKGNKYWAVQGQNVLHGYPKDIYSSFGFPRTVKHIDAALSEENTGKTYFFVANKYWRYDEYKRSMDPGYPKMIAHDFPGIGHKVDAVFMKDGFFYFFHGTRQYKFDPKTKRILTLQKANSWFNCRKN
Kind of test: MMP-1 inhibition test. In kind it is biochemical. Conditions: read-out: Inhibitory activity (IC50, nM) MMP-1. As for the experimental part: (§1) MMP inhibition tests can be carried out, for example, using a fluorescent synthetic substrate based on the methods described in Bickett et al. (D. Mark Bickett et al., Anal. Biochem., 1993, 212, 58-64) and Nagase et al. (H. Nagase et al., J. Biol. Chem., 1994, 269, 20952-20957). The method for each MMP inhibition test is shown below.
180 μL (100 ng) of human MMP-1 (Calbiochem #444208) was mixed with 20 μL of 10 mM p-amino phenyl mercuric acetate (APMA), and activated by reacting at 37° C. for 1 hour. 20 μL of the resultant enzyme solution was diluted to 90 μL with an assay buffer A. The mixture was added to 90 μL of a 20 μM fluorescent substrate (Dnp-Pro-Cha(β-cyclohexylalanyl)-Gly-Cys(Me)-His-Ala-Lys(Nma)-NH2) (SEQ ID NO: 2) prepared with an assay buffer B, and reacted at 37° C. for 5 hours. Enzyme activity was then determined by measuring with a fluorescence intensity meter (Labsystems, Fluoroskan Ascent) at an excitation wavelength of 355 nm and a measurement wavelength of 460 nm.
From the enzyme activity in the presence or the absence of the test substance, the inhibition rate was determined, and the 50% inhibitiory concentration (IC50) of the test substance was calculated.

Test [1] relates to auricular oedema induced by TPA. Kind of test: Inhibition test of auricular oedema induced by single application of TPA in mouse. In kind it is in vivo, BALB/c mice. The protocol:
Auricular oedema was induced by applying 54 μmol/L TPA-acetone solution on both the inner and outer sides of the left ear of BALB/c mice (application volume of 54 μmol/L TPA-acetone solution is 10 μL for each side of the left ear (i.e. 1.08 nmol TPA/auricle)). For a non-induced group, acetone was similarly applied instead of the 54 μmol/L TPA-acetone solution. […] Auricle thickness was measured under ether anesthesia the day before TPA application and 6 hours after TPA application for evaluation of the auricular oedema inhibition effect of the test substance based on the increase in auricle thickness as an index.
The auricular oedema inhibition rate (%) of the test substance was calculated based on the following formula using (A) the average value of the increase in auricular thickness of the group administered with the test substance, (B) the average value of the increase in auricular thickness of the non-induced group, and (C) the average value of the increase in auricular thickness of the control group. […]
The auricular oedema inhibition rate (%) of etanercept was calculated based on the following formula using (B) the average value of the increase in auricular thickness of the non-induced group, (D) the average value of the increase in auricular thickness of the etanercept group, and (E) the average value of the increase in auricular thickness of the hIgG group. […]

The target in a further test is T2, human MMP-17 (Homo sapiens, UniProt Q9ULZ9).
T2 sequence (Q9ULZ9 126-300 limits assumed): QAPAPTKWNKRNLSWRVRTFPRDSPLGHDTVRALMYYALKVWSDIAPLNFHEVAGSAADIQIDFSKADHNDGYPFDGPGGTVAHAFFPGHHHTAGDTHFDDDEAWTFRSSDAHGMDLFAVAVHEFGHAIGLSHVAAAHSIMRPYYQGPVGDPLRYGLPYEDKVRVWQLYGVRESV
The test can be described thus: MMP-17 inhibition test. In kind it is biochemical. Conditions: read-out: Inhibitory activity (IC50, nM) MMP-17. The protocol:
as §1
90 μL (5.8 ng) of human MMP-17 (Calbiochem #475940) prepared with an assay buffer A was added to 90 μL of a 20 μM fluorescent substrate (MOCAc-Pro-Leu-Gly-Leu-A2pr(Dnp)-Ala-Arg-NH2, Peptide Institute Inc., #3163-v) (SEQ ID NO: 3) prepared with an assay buffer B, and reacted at room temperature for 5 hours. Enzyme activity was then determined by measuring with a fluorescence intensity meter (Labsystems, Fluoroskan Ascent) at an excitation wavelength of 320 nm and a measurement wavelength of 405 nm.
From the enzyme activity in the presence or the absence of the test substance, the inhibition rate was determined, and the 50% inhibitory concentration (IC50) of the test substance was calculated.

By IC50 is commonly meant the concentration needed to halve the response being measured. As to `Cc1cccn(CC2(c3ccc(F)c(F)c3)NC(=O)NC2=O)c1=O` (single isomer, unassigned; (+)) [(+)-5-(3,4-difluorophenyl)-5-[(3-methyl-2-oxopyridin-1(2H)-yl)methyl]imidazolidine-2,4-dione], the IC50 at human MMP-1 and at human MMP-17 was > 10000 nM each time. Further, the “Auricular oedema inhibition rate (%)” value in test [1] (BALB/c mice, topical 1 w/v % solution, 10 μL each side of left ear, 1 hour before TPA, auricle thickness 6 hours after TPA) is listed as 62%. The “Etanercept ratio (inhibition rate of test substance / inhibition rate of etanercept)” value in test [1] (etanercept 1 mg/mouse intravenously as positive control) was found to be 3.4.
